Measurements as given in PMC12040169 (PLOS Biology, 2025).

Experiment: in vitro
Conditions: human, hela cells, % viability

Row | SMILES | viability at 28.5 h, 10 µM [%]
1 | O=C(Cc1csc(-c2c(Cl)cccc2Cl)n1)NC[C@H]1CC[C@H](C(=O)O)CC1 [CBK299767] | 85.7
2 | CCOc1ccccc1NC(=O)Nc1ncccc1C [CBK267140] | 85.3
3 | Cn1c(-c2ccc(-c3nc4cnccc4n3C)cc2)nc2cnccc21 [CBK261423] | 106
4 | CN1CCN(c2nc(NS(=O)(=O)c3cccc(C(F)(F)F)c3)cc3ccccc23)CC1 [CBK200013C] | 98.6
5 | c1ccc(Oc2ccccc2-c2cc(N3CCC(N4CCCCC4)CC3)ncn2)cc1 [CBK037728] | 88.7
6 | COC1CCN(C(=O)OCCc2cccnc2)CC1 [CBK200161] | 89.2
7 | c1ccc2c(OCc3nc4ccccc4[nH]3)cccc2c1 [CBK262969] | 106
8 | COc1ccc([C@@]23CCC(NC(=O)Nc4ccc5c(c4)Cc4ccccc4-5)C[C@@H]2N(C)CC3)cc1OC (stereo partly shown) [CBK047550T] | 85.9
9 | O=C1NCC(c2ccccc2)C1C(=O)N/N=C\c1cc(O)ccc1[N+](=O)[O-] (stereo not shown) [CBK262772] | 91.8
10 | Cc1ccc(C(=O)n2nc(-c3cccnc3)nc2N)cc1 [CBK288172] | 97.4
11 | O=C(O)c1ccc(N2N=C(c3ccccc3)/C(=C\c3cccc([N+](=O)[O-])c3O)C2=O)cc1 [CBK265615] | 102
12 | Cc1cn([C@@H]2O[C@H](CO)[C@H](O)C2O)c(=O)nc1N (stereo partly shown) [CBK201268] | 105
13 | Cc1nc(C)n(CC2CCCCN2Cc2cn3ccccc3c2C#N)n1 (stereo not shown) [CBK306102] | 85.1
14 | OCc1cccc(-c2cncc(N3CCN(CCN4CCCC4)CC3)n2)c1 [CBK066136] | 99.8
15 | CC(C)Oc1ncc(C(=O)Nc2ccc(OCCC(N)=O)cc2)cc1Cl [CBK305750] | 102
16 | CC(NC(=O)CCc1nc2ccccc2n1C)c1ccccn1 (stereo not shown) [CBK281823] | 89
17 | COc1cc(-c2ccc(NCCn3cc[nH]c3=O)nc2)cc(OC)c1OC [CBK036907] | 106
18 | O=C(C1=C(O)C(=O)N(Cc2cccnc2)C1c1cccnc1)c1cccs1 (stereo not shown) [CBK264547] | 119
19 | CN1CCN(c2nc(-c3ccoc3)cn3ccnc23)CC1 [CBK066645] | 97.1
20 | OC(Cn1ccc2ccccc21)Cn1c(Cc2ccccc2)nc2ccccc21 (stereo not shown) [CBK267954] | 97.7
21 | COc1ccc(C(=O)N[C@H]2CO[C@H]3[C@@H]2OC[C@H]3OC(=O)Nc2ccccc2)cc1 [CBK289463] | 103
22 | O=C(O)CCn1c(-c2ccc(F)cc2)cc2cccnc21 [CBK282583] | 84.4
23 | O=C(CCc1ccccc1)NNC(=O)C1C2C=CC(C2)C1C(=O)O (stereo not shown) [CBK267541] | 94.2
24 | O=C(O)/C=C/c1cccc(-c2cnc(N3CCOCC3)c3nccn23)c1 [CBK091263] | 104
25 | O=C(/C=N/O)Nc1cc(C(F)(F)F)ccc1Cl [CBK288405] | 107
